Reference: US7223759B2, “Antibacterial 3,5-diaminopiperidine-substituted aromatic and heteroaromatic compounds” (Anadys Pharmaceuticals, Inc., priority 2003, dated 2007)

The compounds below were run on Escherichia coli (ATCC25922) or Staphylococcus aureus (ATCC25923) (assay: Antibacterial MIC, microdilution method in Mueller-Hinton medium). Settings: Escherichia coli, 18 h, MIC in E. coli or S. aureus; two-fold serial dilutions 64 to 0.5 μg/ml in duplicate; 18 hours of incubation at 35° C.; read-out: Potency (MIC).
Format: cell-based
How it was run: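 Read after 18 h incubation at 35° C, MIC is the lowest compound level that blocked growth. Compounds were tested in duplicate over 64–0.5 μg/ml two-fold dilutions using Mueller-Hinton microdilution per NCCLS standard.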
With COc1cnc(NS(=O)(=O)c2ccc(Nc3nc(N4C[C@H](N)C[C@H](N)C4)nc(N4C[C@H](N)C[C@H](N)C4)n3)cc2)nc1 [N-{4-(5-methoxy-pyrimidin-2-ylsulfamoyl)-phenyl]-4,6-Bis-((3R,5S)-3,5-diamino-piperidin-1-yl)-[1,3,5]triazine-2-amine] the MIC was over 64 mg/L.
Work on N[C@@H]1C[C@H](N)CN(c2nc(Nc3ccc4ccc5cccc6ccc3c4c56)nc(N3C[C@H](N)C[C@H](N)C3)n2)C1 [N-pyren-1-yl-4,6-Bis-((3R,5S)-3,5-diamino-piperidin-1-yl)-[1,3,5]triazine-2-amine] yielded an MIC of under 16 mg/L.

Same assay, conditions: Escherichia coli, 18 h, read-out: Potency (MIC)
CN(C)c1cccc(Nc2nc(N3C[C@H](N)C[C@H](N)C3)nc(N3C[C@H](N)C[C@H](N)C3)n2)c1 [N-(3-dimethylamino-phenyl)-4,6-Bis-((3R,5S)-3,5-diamino-piperidin-1-yl)-[1,3,5]triazine-2-amine] gave an MIC of over 64 mg/L.
For Cc1cc(=O)oc2cc(Nc3nc(N(CCN)CCN)nc(N4C[C@H](N)C[C@H](N)C4)n3)ccc12 [7-[4-[Bis-(2-amino-ethyl)-amino]-6-((3R,5S)-3,5-diamino-piperidin-1-yl)-[1,3,5]triazin-2-ylamino]-4-methyl-chromen-2-one], the MIC was over 64 mg/L.
For N[C@@H]1C[C@H](N)CN(c2nc(Nc3ccc(C(=O)N4CCOCC4)c(O)c3)nc(N3C[C@H](N)C[C@H](N)C3)n2)C1 [N-[3-hydroxy-4-(morpholine-4-carbonyl)-phenyl]-4,6-Bis-((3R,5S)-3,5-diamino-piperidin-1-yl)-[1,3,5]triazine-2-amine], the MIC was over 64 mg/L.
In the case of N[C@@H]1C[C@H](N)CN(c2nc(Nc3ccc(NC(=O)c4cc(OC(F)(F)F)ccc4O)c(O)c3)nc(N3C[C@H](N)C[C@H](N)C3)n2)C1 [N-[3-hydroxy-4-(2-hydroxy-5-trifluoromethoxy-benzoylamino)-phenyl]-4,6-Bis-((3R,5S)-3,5-diamino-piperidin-1-yl)-[1,3,5]triazine-2-amine], the MIC is reported as under 16 mg/L.
NC[C@H]1[C@@H](O)CCN1c1nc(Nc2ccc(C(=O)CC(=O)Nc3ccccc3Cl)cc2)nc(N2C[C@H](N)C[C@H](N)C2)n1 [3-{4-[4-((2S,3S)-2-Aminomethyl-3-hydroxy-pyrrolidin-1-yl)-6-((3R,5S)-3,5-diamino-piperidin-1-yl)-[1,3,5]triazin-2-ylamino]-phenyl}-N-(2-chloro-phenyl)-3-oxo-propionamide] was tested, and the MIC was under 64 mg/L.
N[C@@H]1C[C@H](N)CN(c2nc(Nc3ccc(NC(=O)CCCC[C@@H]4SC[C@H]5NC(=O)N[C@@H]45)c(O)c3)nc(N3C[C@H](N)C[C@H](N)C3)n2)C1 [5-((3aR,4S,6aS)-2-Oxo-hexahydro-thieno[3,4-d]imidazol-4-yl)-pentanoicacid {4-[4-((3R,5S)-3,5-diamino-piperidin-1-yl)-6-((3S,5R)-3,5-diamino-piperidin-1-yl)-[1,3,5]triazin-2-ylamino]-2-hydroxy-phenyl}-amide] showed an MIC of over 64 mg/L.
For CC(C)c1cc(C(=O)Nc2ccc(Nc3nc(N4C[C@H](N)C[C@H](N)C4)nc(N4C[C@H](N)C[C@H](N)C4)n3)cc2O)c(O)c(C(C)C)c1 [N-[3-hydroxy-4-(2-hydroxy-3,5-diisopropyl-benzoylamino)-phenyl]-4,6-Bis-((3R,5S)-3,5-diamino-piperidin-1-yl)-[1,3,5]triazine-2-amine], the MIC was under 16 mg/L.
Cc1cc(=O)oc2cc(Nc3nc(N4C[C@H](N)C[C@H](N)C4)nc(N4C[C@@H](N)[C@@H](N)C4)n3)ccc12 [7-[4-((3R,5S)-3,5-diamino-piperidin-1-yl)-6-((3R,4S)-3,4-diamino-pyrrolidin-1-yl)-[1,3,5]triazin-2-ylamino]-4-methyl-chromen-2-one] gave an MIC of over 64 mg/L.
Work on N[C@@H]1C[C@H](N)CN(c2nc(Nc3ccc(NC(=O)c4ccc(F)cc4O)cc3)nc(N3C[C@H](N)C[C@H](N)C3)n2)C1 [N-[4-(4-fluoro-2-hydroxy-benzoylamino)-phenyl]-4,6-Bis-((3R,5S)-3,5-diamino-piperidin-1-yl)-[1,3,5]triazine-2-amine] yielded an MIC of under 16 mg/L.
Work on CCCCCCOc1ccc(Nc2nc(N3C[C@H](N)C[C@H](N)C3)nc(N3C[C@H](N)C[C@H](N)C3)n2)cc1 [N-(4-hexyloxy-phenyl)-4,6-Bis-((3R,5S)-3,5-diamino-piperidin-1-yl)-[1,3,5]triazine-2-amine] yielded an MIC of under 16 mg/L.

Same assay, conditions: MIC in E. coli or S. aureus; two-fold serial dilutions 64 to 0.5 μg/ml in duplicate; 18 hours of incubation at 35° C.
In the case of NC[C@H]1[C@@H](O)CCN1c1nc(Nc2ccc(C(=O)Oc3ccccc3)c(O)c2)nc(N2C[C@H](N)C[C@H](N)C2)n1 [4-[4-((2S,3S)-2-Aminomethyl-3-hydroxy-pyrrolidin-1-yl)-6-((3R,5S)-3,5-diamino-piperidin-1-yl)-[1,3,5]triazin-2-ylamino]-2-hydroxy-benzoic acidphenylester], the “Potency (MIC)” value is reported as “− (− means MIC>64 μg/ml in E. coli or S. aureus)”.
